Reference: patent publication US6984756B2, “Process for preparing biphenyl compounds” (Eli Lilly and Company, priority 2000, dated 2006)

How the values were obtained:
[1] = solubility in organic solvents relative to compound of formula I; assay type: physicochemical
Source text: In Scheme III above, the compound of formula I may be contaminated with achiral dimer, (methylsulfonyl){2-[4-(4-{2-[(methylsulfonyl)amino]ethyl}phenyl)phenyl]ethyl}amine and chiral dimer, ((2R)-2-{4-[4-((1R)-1-methyl-2-{[(methylethyl)sulfonyl]amino}ethyl)phenyl]phenyl}propyl)[(methylethyl)sulfonyl]amine. […] However, the above achiral dimer is less soluble in organic solvents than the compound of formula I therefore, generally resisted removal from the compound of formula I by recrystallization.

water solubility = assay type: physicochemical

| solubility in organic solvents compared with the compound of formula I [1] | water solubility (water solubility) | SMILES |
| --- | --- | --- |
| less soluble |  | CS(=O)(=O)NCCc1ccc(-c2ccc(CCNS(C)(=O)=O)cc2)cc1 [achiral dimer, (methylsulfonyl){2-[4-(4-{2-[(methylsulfonyl)amino]ethyl}phenyl)phenyl]ethyl}amine] |
| more soluble |  | CC(C)S(=O)(=O)NC[C@H](C)c1ccc(-c2ccc([C@@H](C)CNS(=O)(=O)C(C)C)cc2)cc1 [chiral dimer, ((2R)-2-{4-[4-((1R)-1-methyl-2-{[(methylethyl)sulfonyl]amino}ethyl)phenyl]phenyl}propyl)[(methylethyl)sulfonyl]amine] |
|  | poor | CC(C)S(=O)(=O)NC[C@H](C)c1ccc(-c2ccc(CCNS(C)(=O)=O)cc2)cc1 [compound of formula I, {(2R)-2-[4-(4-{2-[(methylsulfonyl)amino]ethyl}phenyl)phenyl]propyl}[(methylethyl)sulfonyl]amine] |
